Activity calls are given as the source filed them. The rule behind the calls is not given here.
What was measured:
[1] = Unbound brain-to-plasma concentration ratio in cynomolgus monkey; assay type: ADME, Macaca fascicularis; conditions: read-out: K(p,uu,brain)
[2] = molecular target: Neuronal acetylcholine receptor; alpha3/beta4 (Homo sapiens) (UniProt P30926+P32297); test: Displacement of [125I] epibatidine from human nicotinic acetylcholine receptor alpha3/beta4 assessed as residual binding level for radioligand at 10 uM incubated for 60 mins by scintillation counting analysis relative to control; assay type: protein-complex assay
[3] = molecular target: Beta-2 adrenergic receptor (Homo sapiens) (UniProt P07550); test: Displacement of [3H]-(-)CGP 12177 from recombinant full length human adrenergic beta 2 receptor expressed in CHO-hNBR1 cells assessed as residual binding level for radioligand at 10 uM incubated for 60 mins by radiometric scintillation analysis relative to control; assay type: cell-based
Sequence of Beta-2 adrenergic receptor (Homo sapiens) (P07550 whole entry, looked up): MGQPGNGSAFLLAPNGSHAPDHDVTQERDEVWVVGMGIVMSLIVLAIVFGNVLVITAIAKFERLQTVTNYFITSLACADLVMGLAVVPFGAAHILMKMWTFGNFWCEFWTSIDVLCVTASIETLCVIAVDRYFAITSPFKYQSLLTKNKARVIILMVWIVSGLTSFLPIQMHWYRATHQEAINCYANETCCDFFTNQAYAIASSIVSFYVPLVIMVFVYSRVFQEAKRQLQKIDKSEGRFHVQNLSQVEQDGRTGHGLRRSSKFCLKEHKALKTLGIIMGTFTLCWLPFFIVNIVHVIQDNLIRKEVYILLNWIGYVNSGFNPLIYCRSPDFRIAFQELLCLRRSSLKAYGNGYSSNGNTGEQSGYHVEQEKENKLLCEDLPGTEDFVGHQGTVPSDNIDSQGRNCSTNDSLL

[4] = molecular target: Estrogen receptor (Homo sapiens) (UniProt P03372); test: Displacement of [3H]estradiol from recombinant full length human recombinant ERalpha receptor expressed in Sf9 insect cells assessed as residual binding level for radioligand at 10 uM measured after 120 mins by radiometric scintillation analysis relative to contro
Sequence of Estrogen receptor (Homo sapiens) (P03372 whole entry): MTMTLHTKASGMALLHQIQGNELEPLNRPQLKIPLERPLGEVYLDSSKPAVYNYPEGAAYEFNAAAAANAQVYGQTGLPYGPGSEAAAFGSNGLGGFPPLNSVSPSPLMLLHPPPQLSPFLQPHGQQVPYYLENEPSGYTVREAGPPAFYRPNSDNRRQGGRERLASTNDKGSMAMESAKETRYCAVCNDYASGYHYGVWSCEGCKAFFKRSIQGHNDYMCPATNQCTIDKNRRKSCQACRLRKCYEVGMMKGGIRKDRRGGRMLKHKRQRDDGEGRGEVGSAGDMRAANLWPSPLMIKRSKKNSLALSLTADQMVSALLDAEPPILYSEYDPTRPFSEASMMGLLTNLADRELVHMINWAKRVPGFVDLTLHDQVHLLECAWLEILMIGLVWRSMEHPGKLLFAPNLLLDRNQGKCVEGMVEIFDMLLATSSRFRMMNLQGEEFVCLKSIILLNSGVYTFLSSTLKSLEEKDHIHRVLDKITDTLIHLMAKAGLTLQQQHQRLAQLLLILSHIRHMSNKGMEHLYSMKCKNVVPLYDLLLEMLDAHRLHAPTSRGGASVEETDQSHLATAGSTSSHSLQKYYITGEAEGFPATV

[5] = molecular target: Glucocorticoid receptor (Homo sapiens) (UniProt P04150); test: Displacement of [3H]Dexamethasone from recombinant full length human glucocorticoid receptor expressed in insect cells assessed as residual binding level for radioligand at 10 uM incubated for 1440 mins by scintillation counting analysis relative to control
Sequence of Glucocorticoid receptor (Homo sapiens) (P04150 whole entry): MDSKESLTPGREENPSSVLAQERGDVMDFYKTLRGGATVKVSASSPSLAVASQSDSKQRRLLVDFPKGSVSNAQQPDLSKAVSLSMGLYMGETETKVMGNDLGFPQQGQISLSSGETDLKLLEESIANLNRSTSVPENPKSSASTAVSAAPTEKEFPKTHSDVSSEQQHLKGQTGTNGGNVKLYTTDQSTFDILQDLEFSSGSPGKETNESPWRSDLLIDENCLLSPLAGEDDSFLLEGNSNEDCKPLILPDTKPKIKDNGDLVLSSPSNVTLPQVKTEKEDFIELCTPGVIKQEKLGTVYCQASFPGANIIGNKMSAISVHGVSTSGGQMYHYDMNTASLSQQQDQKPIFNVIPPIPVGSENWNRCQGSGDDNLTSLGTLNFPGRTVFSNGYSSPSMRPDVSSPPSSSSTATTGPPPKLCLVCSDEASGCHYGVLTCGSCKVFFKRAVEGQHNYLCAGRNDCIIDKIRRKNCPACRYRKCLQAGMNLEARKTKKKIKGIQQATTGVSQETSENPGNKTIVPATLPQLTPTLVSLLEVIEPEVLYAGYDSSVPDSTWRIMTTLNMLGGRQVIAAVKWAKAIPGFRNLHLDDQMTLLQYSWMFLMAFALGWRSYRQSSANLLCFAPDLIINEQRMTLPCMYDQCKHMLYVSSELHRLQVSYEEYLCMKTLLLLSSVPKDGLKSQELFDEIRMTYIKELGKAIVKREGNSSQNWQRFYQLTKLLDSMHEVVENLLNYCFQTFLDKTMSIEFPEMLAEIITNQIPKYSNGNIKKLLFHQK

hERG (KCNH2) = hERG (KCNH2) (Homo sapiens, UniProt Q12809); test: Displacement of [3H]-Astemizole from human recombinant full length ERG channel expressed in HEK293 cells assessed as residual binding level for radioligand at 10 uM incubated for 60 mins by scintillation counting analysis relative to control; assay type: cell-based; conditions: probe [3H]-Astemizole, read-out: INH
Rattus norvegicus [6] = organism: Rattus norvegicus; test: Displacement of [3H]-Kainic acid from Glutamate ionotropic kainate receptor in Wistar rat brain assessed as residual binding level for radioligand at 10 uM incubated for 120 mins by scintillation counting analysis relative to control; assay type: tissue-based
[7] = molecular target: Glutamate NMDA receptor (Rattus norvegicus) (UniProt P35439+Q00959+Q00960+Q00961+Q62645+Q8VHN2+Q9R1M7); test: Displacement of [3H]-CGP39653 from NMDA glutamate receptor in Wistar rat brain assessed as residual binding level for radioligand at 10 uM incubated for 20 mins by scintillation counting analysis relative to control; assay type: tissue-based
Mus musculus = test: Reversal of amphetamine-induced hyperlocomotion in C57BL/6 mouse at 0.1 to 10 mg/kg, po pretreated for 30 mins after habituation in chamber followed by amphetamine challenge and measured after 1 hr; assay type: functional, organism-based; conditions: dose mg/kg 0.1-10, time 30.0 min
Rattus norvegicus [8] = test: Reversal of amphetamine-induced hyperlocomotion in po dosed rat assessed as minimum effective dose; assay type: functional; conditions: read-out: MED
[9] = Hepatic clearance in human; assay type: ADME
[10] = Positive allosteric modulation of cynomolgus monkey M4 receptor; design: species or system Macaca fascicularis
[11] = Brain to plasma permeability coefficient, Kp in Sprague-Dawley rat at 0.1 to 0.2 mg/kg, iv measured after 1.5 hrs; assay type: ADME, organism-based; conditions: dose 0.1-0.2 mg/kg
[12] = molecular target: Kappa-type opioid receptor (Homo sapiens) (UniProt P41145); test: Displacement of [3H]-Diprenorphine from recombinant full length human kappa opioid receptor expressed in HEK293 cells assessed as residual binding level for radioligand at 10 uM incubated for 60 mins by scintillation counting analysis relative to control; assay type: cell-based
Sequence of Kappa-type opioid receptor (Homo sapiens) (P41145 whole entry): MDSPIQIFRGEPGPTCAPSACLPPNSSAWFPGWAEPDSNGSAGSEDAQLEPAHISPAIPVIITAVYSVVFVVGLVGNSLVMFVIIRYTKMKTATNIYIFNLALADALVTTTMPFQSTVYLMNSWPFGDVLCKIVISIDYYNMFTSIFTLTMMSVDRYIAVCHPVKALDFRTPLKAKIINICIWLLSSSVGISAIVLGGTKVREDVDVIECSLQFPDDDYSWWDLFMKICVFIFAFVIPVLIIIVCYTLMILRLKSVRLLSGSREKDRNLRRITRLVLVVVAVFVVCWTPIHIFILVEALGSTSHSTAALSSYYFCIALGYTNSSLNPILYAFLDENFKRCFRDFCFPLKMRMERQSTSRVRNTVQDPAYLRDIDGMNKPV

[13] = molecular target: B2 bradykinin receptor (Homo sapiens) (UniProt P30411); test: Displacement of [3H]bradykinin from recombinant full length human B2 receptor expressed in Chem-1 cells assessed as residual binding level for radioligand at 10 uM after 60 mins by radiometric scintillation analysis relative to control; assay type: cell-based
Sequence of B2 bradykinin receptor (Homo sapiens) (P30411 whole entry): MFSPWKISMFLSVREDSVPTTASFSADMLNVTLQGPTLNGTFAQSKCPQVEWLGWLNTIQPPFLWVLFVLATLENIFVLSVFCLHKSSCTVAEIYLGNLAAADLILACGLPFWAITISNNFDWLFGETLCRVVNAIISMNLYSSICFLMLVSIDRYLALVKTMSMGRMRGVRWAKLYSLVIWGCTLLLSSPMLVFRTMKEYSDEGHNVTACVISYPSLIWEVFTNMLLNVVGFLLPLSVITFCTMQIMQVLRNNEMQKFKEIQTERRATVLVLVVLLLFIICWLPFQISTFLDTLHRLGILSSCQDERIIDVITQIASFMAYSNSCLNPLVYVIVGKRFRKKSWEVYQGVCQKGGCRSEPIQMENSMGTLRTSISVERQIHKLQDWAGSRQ

[14] = molecular target: Mu-type opioid receptor (Homo sapiens) (UniProt P35372); test: Displacement of [3H]-Diprenorphine from recombinant full length human mu opioid receptor expressed in CHO-K1 cells assessed as residual binding level for radioligand at 10 uM incubated for 60 mins by scintillation counting analysis relative to control; assay type: cell-based
[15] = molecular target: Substance-P receptor (Homo sapiens) (UniProt P25103); test: Displacement of [3H]substance P from recombinant full length human NK1R expressed in CHO cells assessed as residual binding level for radioligand at 10 uM after 90 mins by radiometric scintillation analysis relative to control; assay type: cell-based
[16] = Plasma clearance in dog; assay type: ADME, Canis lupus familiaris; conditions: read-out: CL(app)
[17] = molecular target: Alpha-2A adrenergic receptor (Homo sapiens) (UniProt P08913); test: Displacement of [3H][…] from recombinant full length human adrenergic alpha 2A receptor expressed in CHO-K1 cells assessed as residual binding level for radioligand at 10 uM incubated for 60 mins by radiometric scintillation analysis relative to control; assay type: cell-based
Sequence of Alpha-2A adrenergic receptor (Homo sapiens) (P08913 whole entry): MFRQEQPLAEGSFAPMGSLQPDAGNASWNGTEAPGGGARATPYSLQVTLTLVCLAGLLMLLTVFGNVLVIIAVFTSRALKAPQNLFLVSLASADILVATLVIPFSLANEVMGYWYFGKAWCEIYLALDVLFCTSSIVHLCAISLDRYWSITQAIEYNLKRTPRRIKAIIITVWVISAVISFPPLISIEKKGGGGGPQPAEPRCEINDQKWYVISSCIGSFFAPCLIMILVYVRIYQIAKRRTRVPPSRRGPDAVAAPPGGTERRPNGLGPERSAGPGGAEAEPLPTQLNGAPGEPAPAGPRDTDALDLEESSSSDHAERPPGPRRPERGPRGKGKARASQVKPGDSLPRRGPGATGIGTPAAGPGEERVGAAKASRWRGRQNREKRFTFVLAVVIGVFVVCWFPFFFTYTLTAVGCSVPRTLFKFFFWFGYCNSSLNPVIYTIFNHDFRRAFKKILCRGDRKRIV

Rattus norvegicus [18] = organism: Rattus norvegicus; test: Displacement of [3H]GABA from GABA receptor in Wistar rat brain assessed as residual binding level for radioligand at 10 uM after 20 mins by radiometric scintillation analysis relative to control; assay type: tissue-based
[19] = Plasma clearance in rat; assay type: ADME; conditions: read-out: CL(app)
[20] = molecular target: Delta-type opioid receptor (Homo sapiens) (UniProt P41143); test: Displacement of [3H]-Naltrindole from recombinant full length human delta opioid receptor expressed in HEK293 cells assessed as residual binding level for radioligand at 10 uM incubated for 60 mins by scintillation counting analysis relative to control; assay type: cell-based
Sequence of Delta-type opioid receptor (Homo sapiens) (P41143 whole entry): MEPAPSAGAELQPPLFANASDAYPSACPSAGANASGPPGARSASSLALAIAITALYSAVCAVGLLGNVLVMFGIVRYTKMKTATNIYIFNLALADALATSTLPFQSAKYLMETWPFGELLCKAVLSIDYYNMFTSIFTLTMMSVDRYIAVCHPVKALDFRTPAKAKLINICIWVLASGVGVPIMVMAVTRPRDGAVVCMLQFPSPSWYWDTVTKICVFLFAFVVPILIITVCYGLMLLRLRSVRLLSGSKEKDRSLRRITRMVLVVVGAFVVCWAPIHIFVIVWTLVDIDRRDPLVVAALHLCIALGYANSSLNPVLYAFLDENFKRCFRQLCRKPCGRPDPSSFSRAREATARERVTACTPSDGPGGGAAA

[21] = molecular target: B1 bradykinin receptor (Homo sapiens) (UniProt P46663); test: Displacement of [3H]desArg10-KD from human recombinant Bradykinin B1 receptor expressed in CHO-K1 cells assessed as residual binding level for radioligand at 10 uM incubated for 60 mins by radiometric scintillation analysis relative to control; assay type: cell-based
Sequence of B1 bradykinin receptor (Homo sapiens) (P46663 whole entry): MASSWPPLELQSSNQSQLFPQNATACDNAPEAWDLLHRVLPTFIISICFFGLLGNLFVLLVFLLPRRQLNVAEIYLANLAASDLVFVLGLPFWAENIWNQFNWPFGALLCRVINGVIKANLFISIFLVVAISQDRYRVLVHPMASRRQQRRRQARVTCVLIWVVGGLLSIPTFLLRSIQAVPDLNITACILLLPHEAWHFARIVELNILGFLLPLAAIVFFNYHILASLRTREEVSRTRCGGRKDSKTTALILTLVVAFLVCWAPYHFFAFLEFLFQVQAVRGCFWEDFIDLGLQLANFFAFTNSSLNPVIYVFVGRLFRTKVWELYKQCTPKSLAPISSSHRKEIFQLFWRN

Macaca fascicularis = organism: Macaca fascicularis; test: Positive allosteric modulation of cynomolgus monkey M4 receptor relative to acetylcholine; conditions: filed as positive allosteric modulator
[22] = molecular target: Gamma-aminobutyric acid type B receptor subunit 1 (Homo sapiens) (UniProt Q9UBS5); test: Displacement of [3H]CGP-54626 from human recombinant full length GABAB1 receptor expressed in CHO-K1 cells assessed as residual binding level for radioligand at 10 uM incubated for 180 mins by scintillation counting analysis relative to control; assay type: cell-based
Cytochrome P450 3A4 = Cytochrome P450 3A4 (Homo sapiens, UniProt P08684); test: Inhibition of CYP3A4 (unknown origin); assay type: ADME
Sequence of Cytochrome P450 3A4 (P08684 whole entry): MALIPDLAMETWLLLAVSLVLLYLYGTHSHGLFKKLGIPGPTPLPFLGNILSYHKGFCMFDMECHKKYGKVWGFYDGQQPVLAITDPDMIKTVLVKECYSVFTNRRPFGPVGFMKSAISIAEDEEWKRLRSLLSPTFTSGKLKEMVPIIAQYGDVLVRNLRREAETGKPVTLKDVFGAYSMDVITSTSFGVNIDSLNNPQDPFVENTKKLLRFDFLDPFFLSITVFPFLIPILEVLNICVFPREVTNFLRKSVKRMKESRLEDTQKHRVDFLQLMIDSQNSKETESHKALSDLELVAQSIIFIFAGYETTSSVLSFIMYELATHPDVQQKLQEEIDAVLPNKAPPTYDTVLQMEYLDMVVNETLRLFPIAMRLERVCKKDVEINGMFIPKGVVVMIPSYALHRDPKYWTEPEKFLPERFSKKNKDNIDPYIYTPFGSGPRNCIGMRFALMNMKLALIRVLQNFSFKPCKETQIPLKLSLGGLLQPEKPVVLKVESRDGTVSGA

[23] = molecular target: Voltage-dependent N-type calcium channel subunit alpha-1B (Rattus norvegicus) (UniProt Q02294); test: Displacement of [125I]-w-conotoxin GIVA from N-type calcium channel Cav2.2 in Wistar rat brain membrane assessed as residual binding level for radioligand at 10 uM incubated for 30 mins by radiometric scintillation analysis relative to control; assay type: cell membranes
[24] = molecular target: Melatonin receptor type 1A (Homo sapiens) (UniProt P48039); test: Displacement of 2-[1251]-iodomelatonin from human MT1 receptor expressed in CHO-K1 cells assessed as residual binding level for radioligand at 10 uM incubated for180 mins by scintillation counting analysis relative to control; assay type: cell-based; conditions: time 180.0 min
Sequence of Melatonin receptor type 1A (Homo sapiens) (P48039 whole entry): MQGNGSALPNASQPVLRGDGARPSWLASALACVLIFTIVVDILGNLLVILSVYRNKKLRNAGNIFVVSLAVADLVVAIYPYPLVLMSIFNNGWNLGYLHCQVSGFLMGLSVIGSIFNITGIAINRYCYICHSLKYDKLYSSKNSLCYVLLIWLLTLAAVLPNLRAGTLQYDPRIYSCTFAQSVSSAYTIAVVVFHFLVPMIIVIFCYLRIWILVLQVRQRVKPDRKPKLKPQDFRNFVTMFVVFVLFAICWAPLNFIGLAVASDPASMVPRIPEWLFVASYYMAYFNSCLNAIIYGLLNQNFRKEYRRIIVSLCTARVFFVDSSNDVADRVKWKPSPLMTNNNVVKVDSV

[25] = molecular target: Neuropeptide Y receptor type 1 (Homo sapiens) (UniProt P25929); test: Displacement of [125I]peptide YY from human Y1 receptor in SK-N-MC cell membrane assessed as residual binding level for radioligand at 10 uM after 120 mins by scintillation counting analysis relative to control
[26] = molecular target: Platelet-activating factor receptor (Homo sapiens) (UniProt P25105); test: Displacement of [3H]-PAF from human PAF receptor assessed as residual binding level for radioligand at 10 uM incubated for 180 mins by scintillation counting analysis relative to control
Sequence of Platelet-activating factor receptor (Homo sapiens) (P25105 whole entry): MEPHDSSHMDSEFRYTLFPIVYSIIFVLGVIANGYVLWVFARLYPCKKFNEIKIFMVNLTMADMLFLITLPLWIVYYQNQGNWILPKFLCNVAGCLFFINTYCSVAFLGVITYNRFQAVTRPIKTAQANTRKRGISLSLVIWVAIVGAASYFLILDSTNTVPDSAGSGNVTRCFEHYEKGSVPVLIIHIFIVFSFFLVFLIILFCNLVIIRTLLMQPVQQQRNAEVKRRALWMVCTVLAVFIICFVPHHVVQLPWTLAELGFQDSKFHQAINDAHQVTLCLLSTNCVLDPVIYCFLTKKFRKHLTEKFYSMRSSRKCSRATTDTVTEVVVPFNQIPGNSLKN

In the case of `COc1nnc2sc(C(=O)NC3CN(c4ncc(C(F)(F)F)cn4)C3)c(N)c2c1C`, the Kp uu [1] is reported as 1.5, the Activity [2] is reported as > 50% and the Activity [3] is reported as > 50%. For the same compound, the Activity [4] was > 50%, the Activity [5] was > 50% and the activity at 1 h, 10 µM (hERG (KCNH2)) was < 25%. For the same compound, the Activity (Rattus norvegicus [6]) was > 50%, the Activity [7] was > 50% and the Activity (Mus musculus) was “Active”. For the same compound, the minimal effective dose (Rattus norvegicus [8]) was 0.56 mg/kg, the CLH [9] was 2.52 mL/min/kg and the EC50 [10] was 0.068 µM. The Kp at 1.5 h [11] was 0.16, the Activity [12] was > 50% and the Activity [13] was > 50%. For the same compound, the Activity [14] was > 50%, the Activity [15] was > 50% and the clearance [16] was 5.9 mL/min/kg. The Activity [17] was > 50%, the Activity (Rattus norvegicus [18]) was > 50% and the clearance [19] was 7.7 mL/min/kg. For the same compound, the Activity [20] was > 50%, the Activity [21] was > 50% and the %max (Macaca fascicularis) was 57%. The Activity [22] was > 50%, the IC50 (Cytochrome P450 3A4) was > 30 µM and the Activity [23] was > 50%. For the same compound, the Activity [24] was > 50%, the Activity [25] was > 50% and the Activity [26] was > 50%.
